Values quoted from earlier work as cited in patent publication US20060246003A1, “Composition containing anti-dementia drug” (priority 2004, published 2006).
Structures can show the parent of a compound that is named as a salt.

System: patients with moderate to severe Alzheimer-type dementia
Conditions: memantine hydrochloride added in patients already administered donepezil hydrochloride, compared to placebo group

## CC12CC3CC(C)(C1)CC(N)(C3)C2 [memantine hydrochloride]
  cognitive ability and activities of daily living: improved
